According to patent US8969304B2, “Compositions and methods for the prevention of cancer in high risk patients” (The Institute for Cancer Research, priority 2010, dated 2015):
Residues, ends and D or L forms follow the SMILES beside them. No end group written: not given here.

Legend:
MCF-10F cells [1] = conditions: cells treated with E2; cited from earlier work
FAK/AKT/FOXO3A pathway = assay: FAK, AKT and FOXO3A expression (unpublished data); format: cell-based; conditions: previous results
GPR30 = assay: real time RT-PCR, GPR30 gene expression; format: cell-based, human; conditions: treated MCF-10F cells, data not shown
MCF-10F cells [2] = format: cell-based, human
LHCGR = assay: real time RT-PCR, LHCGR gene expression; format: cell-based, human
CXCR1 = assay: real time RT-PCR, CXCR1 gene expression; format: cell-based, human
[3] = target: T1, LH/hCG binding to rat ovarian membranes (Rattus norvegicus, UniProt P16235); conditions: among two series of overlapping peptides of hCG (ref. 15); cited from earlier work
T1 construct: from tissue; host or cells: rat ovarian membranes
T1 sequence (P16235 27-700): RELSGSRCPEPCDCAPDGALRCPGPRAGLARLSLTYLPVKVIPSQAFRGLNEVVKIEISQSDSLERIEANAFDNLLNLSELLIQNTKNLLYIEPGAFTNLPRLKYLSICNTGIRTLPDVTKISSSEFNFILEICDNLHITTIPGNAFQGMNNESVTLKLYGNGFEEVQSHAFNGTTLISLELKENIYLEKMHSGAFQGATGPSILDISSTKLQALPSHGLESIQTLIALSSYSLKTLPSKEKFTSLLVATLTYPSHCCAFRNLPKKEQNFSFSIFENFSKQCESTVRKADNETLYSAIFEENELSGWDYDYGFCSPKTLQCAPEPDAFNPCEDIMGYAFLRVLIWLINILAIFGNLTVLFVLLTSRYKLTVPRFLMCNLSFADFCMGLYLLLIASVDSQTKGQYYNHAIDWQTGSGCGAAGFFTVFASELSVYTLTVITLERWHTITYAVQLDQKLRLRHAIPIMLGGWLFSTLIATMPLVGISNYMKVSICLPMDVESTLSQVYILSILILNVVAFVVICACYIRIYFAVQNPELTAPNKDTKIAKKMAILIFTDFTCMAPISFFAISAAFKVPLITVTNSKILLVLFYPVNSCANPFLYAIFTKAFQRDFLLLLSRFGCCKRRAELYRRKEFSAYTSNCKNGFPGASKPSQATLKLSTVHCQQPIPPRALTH

LH/hCG-R in MA-10 cells = target: T2, LH/hCG-R in MA-10 cells (Mus musculus, UniProt P30730); assay: intracellular cAMP production (enzyme immunoassay); format: cell-based; conditions: 2.5 μg r-hCG/ml or 20 μM PPFC-879-81-95
T2 construct: endogenous in cells; host or cells: MA-10 mouse Leydig tumor cells
T2 sequence (P30730 27-700): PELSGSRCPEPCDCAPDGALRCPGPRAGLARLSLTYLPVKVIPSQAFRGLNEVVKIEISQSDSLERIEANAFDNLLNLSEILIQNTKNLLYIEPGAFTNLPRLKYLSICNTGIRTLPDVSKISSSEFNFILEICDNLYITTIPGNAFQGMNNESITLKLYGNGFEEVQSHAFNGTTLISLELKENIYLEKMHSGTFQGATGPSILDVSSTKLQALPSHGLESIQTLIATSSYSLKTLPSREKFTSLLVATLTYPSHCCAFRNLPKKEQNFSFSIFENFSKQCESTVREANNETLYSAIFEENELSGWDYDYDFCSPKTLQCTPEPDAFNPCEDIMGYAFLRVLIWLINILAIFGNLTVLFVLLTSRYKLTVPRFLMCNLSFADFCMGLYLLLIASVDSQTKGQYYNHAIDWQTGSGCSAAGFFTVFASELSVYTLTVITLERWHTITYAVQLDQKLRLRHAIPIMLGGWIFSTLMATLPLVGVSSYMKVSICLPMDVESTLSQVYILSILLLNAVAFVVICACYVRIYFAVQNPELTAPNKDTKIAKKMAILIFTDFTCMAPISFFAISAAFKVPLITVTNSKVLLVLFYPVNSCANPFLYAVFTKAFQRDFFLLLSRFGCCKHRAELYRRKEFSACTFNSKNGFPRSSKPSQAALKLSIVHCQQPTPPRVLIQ

[4] = test system: E2-transformed MCF-10F cells; assay: solid mass formation and branching of E2-transformed MCF-10F cells in collagen; format: cell-based, human; conditions: compared with r-hCG
LH/hCG-R in MCF10F cells = target: T3, LH/hCG-R in MCF10F cells (Homo sapiens, UniProt P22888); assay: intracellular cAMP production (enzyme immunoassay); format: cell-based; conditions: 2.5 μg r-hCG/ml or 20 μM PPFC-879-81-95
T3 construct: For verifying the presence and functionality of the receptor in normal and transformed MCF10F cells; endogenous in cells; host or cells: MCF10F human breast epithelial cells
T3 sequence (P22888 27-699): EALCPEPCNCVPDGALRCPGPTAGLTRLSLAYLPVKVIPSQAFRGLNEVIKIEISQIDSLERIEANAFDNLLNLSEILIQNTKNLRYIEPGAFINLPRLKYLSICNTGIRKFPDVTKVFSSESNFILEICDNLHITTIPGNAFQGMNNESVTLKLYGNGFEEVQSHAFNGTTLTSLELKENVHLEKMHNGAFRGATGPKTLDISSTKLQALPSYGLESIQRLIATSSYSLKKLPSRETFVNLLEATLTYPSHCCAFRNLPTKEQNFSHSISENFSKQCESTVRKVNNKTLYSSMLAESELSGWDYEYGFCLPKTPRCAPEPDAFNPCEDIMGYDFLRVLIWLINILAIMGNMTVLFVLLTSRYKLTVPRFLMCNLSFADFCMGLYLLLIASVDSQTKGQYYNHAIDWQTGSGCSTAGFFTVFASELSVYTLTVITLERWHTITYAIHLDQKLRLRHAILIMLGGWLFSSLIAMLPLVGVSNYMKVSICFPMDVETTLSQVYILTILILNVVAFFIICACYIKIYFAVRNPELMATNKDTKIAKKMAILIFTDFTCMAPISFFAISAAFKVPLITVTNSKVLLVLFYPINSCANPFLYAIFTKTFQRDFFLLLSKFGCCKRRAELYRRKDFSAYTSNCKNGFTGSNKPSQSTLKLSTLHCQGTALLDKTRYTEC

MCF-7 = assay: invasiveness (cells traversing a matrigel membrane); format: cell-based, human
Description: (§1) FIG. 2: (A) Effect of 17b-estradiol (E2), r-hCG and PPFC-879-81-95 peptide on formation of primary, secondary, and tertiary ducts by MCF10F cells grown in a collagen matrix. DMSO served as control. Ordinate, percentage of structures. (B) Effect of r-hCG and hCG peptide on colony formation. Only DMSO-treated (control) E2-cells formed solid masses. (C) Effect of r-hCG and hCG peptide on the invasive index of MCF10F, E2-transformed, E2T4, MCF-7 and MDA-MB-435 cells. Ordinate, number of cells traversing a matrigel membrane.
(§2) The cells grow along hollow branches forming ductules lined by a monolayer of epithelial cells. […] For these studies, we designed oligopeptides of the hCG beta subunit and had them synthesized by AAPPTec, LLC, Louisville, Ky. We selected a 15 aa peptide with a sequence “N”-[…]-“C” (SEQ ID NO: 2) that encompasses aa 81-95 and was designated PPFC-879-81-95.

MCF-10F cells [5] = assay: as above; format: cell-based, human
Description: as §1, §2

[6] = test system: E2-transformed MCF-10F cells; assay: as above; format: cell-based, human
Description: as §1, §2

tumor derived E2T4 cells = assay: as above; format: cell-based, human
Description: as §1, §2

MDA-MB-435 = assay: as above; format: cell-based, human
Description: as §1, §2

MCF-10F cells [7] = assay: ductulogenesis and branching of MCF-10F cells in 3D collagen matrix; format: cell-based, human; conditions: MCF-10F cells in collagen matrix, added to the culture medium
Description: as §2

[8] = test system: human breast epithelial cells; assay: genomic analysis of r-hCG and peptide-treated cells; format: cell-based
Description: The down-regulation of BMI1 supports the concept that the preventive effect of hCG results from the shifting of the stem cell 1 to stem cell 2 (Russo, J., et al., (2006) Front Biosci., 11:151-172). This is only one example of identification of the molecular determinants of hormone specificity which provide the means to target the CG/LH-R for activation thereby conferring the protective effects against breast cancer.

C[C@]12CC[C@@H]3c4ccc(O)cc4CC[C@H]3[C@@H]1CC[C@@H]2O [E2, 17-β-estradiol]
structures formed by MCF-10F cells in collagen after treatment (MCF-10F cells [1]): forming instead spherical structures with a multilayered epithelium that exhibits marked atypia

CC(C)C[C@H](NC(=O)[C@H](C)NC(=O)[C@@H](NC(=O)[C@@H]1CCCN1C(=O)[C@H](Cc1ccccc1)NC(=O)[C@@H](N)CO)C(C)C)C(=O)N[C@@H](CO)C(=O)N[C@@H](CS)C(=O)N[C@@H](CCCNC(=N)N)C(=O)N[C@@H](CS)C(=O)NCC(=O)N1CCC[C@H]1C(=O)N[C@@H](CS)C(=O)N[C@@H](CCCNC(=N)N)C(=O)N[C@@H](CCCNC(=N)N)C(N)=O [peptide, SFP VAL SCR CGP CRR-NH2] (H-SFPVALSCRCGPCRR-NH2; N-terminus assumed)
FAK and AKT (FAK/AKT/FOXO3A pathway): decrease
FOXO3A expression (FAK/AKT/FOXO3A pathway): up-regulate
GPR30 mRNA expression (GPR30): undetectable or very low values
cell proliferation inhibition, peptide versus hCG (MCF-10F cells [2]; days 10 and 12, p<0.02): more potent cell proliferation inhibitor than hCG
decrease in the number of viable cells (MCF-10F cells [2]; human, 20 μM): 36-72%
hCG receptor (LHCGR) gene expression (LHCGR; MCF-10F, from the first day of treatment on): up-regulated
LHCGR gene expression, peptide versus hCG (LHCGR; last day of treatment (15th), p=0.06): tendency of the peptide to induce a higher levels gene expression than hCG
CXCR1 expression (CXCR1; MCF-10F, all along the treatment): down-regulated
CXCR1 down-regulation, peptide versus hCG (CXCR1; last day of treatment (15), p<0.01): down-regulation of the receptor was more apparent in the peptide-treated cells than in hCG treated cells
inhibition of 125I-labeled hCG binding [3]: most potent inhibitor of LH/hCG binding

Ser-Tyr-Ala-Val-Ala-Leu-Ser-Cys-Gln-Cys-Ala-Leu-Cys-Arg-Arg (NH2) (SYAVALSCQCALCRR-NH2; cysteine pairing not given here) [PPFC-879-81-95, 15 aa peptide of the hCG beta subunit, aa 81-95]
intracellular cAMP production (LH/hCG-R in MA-10 cells): time-dependent increase
formation of solid masses in collagen [4]: abrogated more efficiently than r-hCG
intracellular cAMP production (LH/hCG-R in MCF10F cells): time-dependent increase
invasiveness (MCF-7): inhibited invasiveness
invasiveness (MCF-10F cells [5]): inhibited invasiveness
invasiveness [6]: inhibited invasiveness
invasiveness (tumor derived E2T4 cells): inhibited invasiveness
invasiveness (MDA-MB-435): inhibited invasiveness
number of secondary and tertiary ducts (branching pattern) (MCF-10F cells [7]): increasing the number of secondary and tertiary ducts
gene clusters activated or downregulated [8]: induced activation or downregulation of the same clusters of genes that were modified by either parity or r-hCG treatment
